Where two headings read alike, the source gives them in different places.
Molecular target: T1, F508delCFTR (Homo sapiens, UniProt P13569, DEL508-508)
T1 construct: expressed in transfected cells; host or cells: CFBE41o- (human lung derived epithelial cell line), doxycycline-inducible expression
Test: Cell Surface Expression-Horse Radish Peroxidase (CSE-HRP) assay
Type: cell-based
Details: CFBE41o-F508delCFTR-HRP cells; for Maximum % activity (with co-corrector): with co-corrector (2 μM); for Maximum % activity (with co-corrector) / Maximum % activity (without co-corrector): normalized to on-plate positive control, highest concentration 20 μM
Method in brief: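 CFBE41o- cells expressed F508delCFTR with HRP in the fourth exofacial loop, induced by 0.5 μg/mL doxycycline for 72 h at 37 °C. Compounds alone or with 2 μM co-corrector ran 18–24 h at 33 °C, 8-point 3-fold from 20 μM. Washed-cell luminol luminescence was normalized to DMSO and positive control, fitted sigmoidally for EC50 (three plates).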

[1] = test compound without co-corrector, 18-24 hours at 33° C., read-out: EC50 (without co-corrector)
[2] = with co-corrector (2 μM of 3-[(2R,4R)-4-({[1-(2,2-difluoro-1,3-benzodioxol-5-yl)cyclopropyl]carbonyl}amino)-7-methoxy-3,4-dihydro-2H-chromen-2-yl]benzoic acid), read-out: EC50 (with co-corrector)

T1 sequence (P13569 with tags, fused parts or gaps DEL508-508): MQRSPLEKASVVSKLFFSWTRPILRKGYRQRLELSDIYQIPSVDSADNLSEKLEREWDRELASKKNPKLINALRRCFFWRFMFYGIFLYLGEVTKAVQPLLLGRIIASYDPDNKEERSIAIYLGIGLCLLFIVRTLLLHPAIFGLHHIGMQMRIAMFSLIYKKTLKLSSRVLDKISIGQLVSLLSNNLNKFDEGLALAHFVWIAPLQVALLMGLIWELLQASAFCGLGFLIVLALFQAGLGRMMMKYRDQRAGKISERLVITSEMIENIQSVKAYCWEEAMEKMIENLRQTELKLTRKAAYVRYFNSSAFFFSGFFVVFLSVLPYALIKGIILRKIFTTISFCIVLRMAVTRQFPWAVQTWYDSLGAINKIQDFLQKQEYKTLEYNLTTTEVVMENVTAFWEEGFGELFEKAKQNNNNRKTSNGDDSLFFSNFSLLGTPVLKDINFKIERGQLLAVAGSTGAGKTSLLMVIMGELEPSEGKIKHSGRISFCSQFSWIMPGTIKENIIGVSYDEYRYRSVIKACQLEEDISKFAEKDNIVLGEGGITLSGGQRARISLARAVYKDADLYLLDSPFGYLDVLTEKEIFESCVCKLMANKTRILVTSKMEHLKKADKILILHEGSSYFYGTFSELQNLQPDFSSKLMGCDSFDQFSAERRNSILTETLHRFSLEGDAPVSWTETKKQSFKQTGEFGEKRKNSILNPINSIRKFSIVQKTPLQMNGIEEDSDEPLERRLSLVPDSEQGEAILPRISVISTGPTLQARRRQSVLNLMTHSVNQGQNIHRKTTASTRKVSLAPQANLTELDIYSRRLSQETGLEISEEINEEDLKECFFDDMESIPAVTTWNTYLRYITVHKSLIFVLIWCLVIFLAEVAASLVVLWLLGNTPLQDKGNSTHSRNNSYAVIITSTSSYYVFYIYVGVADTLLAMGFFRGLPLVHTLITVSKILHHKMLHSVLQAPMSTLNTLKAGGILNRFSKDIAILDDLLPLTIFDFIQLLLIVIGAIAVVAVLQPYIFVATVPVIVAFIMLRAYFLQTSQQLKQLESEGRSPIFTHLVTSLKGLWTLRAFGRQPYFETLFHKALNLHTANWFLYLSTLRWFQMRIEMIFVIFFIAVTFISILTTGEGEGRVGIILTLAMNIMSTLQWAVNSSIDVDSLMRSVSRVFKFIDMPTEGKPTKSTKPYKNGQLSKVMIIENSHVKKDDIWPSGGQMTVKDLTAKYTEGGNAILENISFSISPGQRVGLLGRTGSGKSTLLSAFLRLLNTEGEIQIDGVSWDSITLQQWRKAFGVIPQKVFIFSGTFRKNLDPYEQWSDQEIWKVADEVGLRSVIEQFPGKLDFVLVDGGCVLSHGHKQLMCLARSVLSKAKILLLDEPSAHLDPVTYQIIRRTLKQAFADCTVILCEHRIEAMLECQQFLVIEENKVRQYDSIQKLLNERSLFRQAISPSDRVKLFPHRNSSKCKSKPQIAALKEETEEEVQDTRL

Structure (SMILES) | EC50 [1] [nM] | EC50 [2] [nM] | Maximum % activity (with co-corrector) | Maximum % activity (without co-corrector)
COc1ncc(C(F)(F)F)cc1CO[C@H]1[C@H](C(C)(C)C)[C@@H](C(=O)O)N(C(=O)[C@H]2CCCCO2)[C@H]1c1ccccc1C(C)C [Example 97, (2S,3R,4S,5S)-3-tert-butyl-4-{[2-methoxy-5-(trifluoromethyl)pyridin-3-yl]methoxy}-1-[(2R)-oxane-2-carbonyl]-5-[2-(propan-2-yl)phenyl]pyrrolidine-2-carboxylic acid] | 1000 to 10000 | 1000 to 10000 | +++ (≥350) | ++ (≥100 and <200)
COc1ncc(C(F)(F)F)cc1CO[C@H]1[C@H](C(C)(C)C)[C@@H](C(=O)O)N(C(=O)[C@@H]2CCCO2)[C@H]1c1ccccc1C(C)C [Example 98, (2S,3R,4S,5S)-3-tert-butyl-4-{[2-methoxy-5-(trifluoromethyl)pyridin-3-yl]methoxy}-1-[(2S)-oxolane-2-carbonyl]-5-[2-(propan-2-yl)phenyl]pyrrolidine-2-carboxylic acid] | < 1000 | < 1000 | +++ (≥350) | ++ (≥100 and <200)
COc1ncc(C(F)(F)F)cc1CO[C@H]1[C@H](C(C)(C)C)[C@@H](C(=O)O)N(C(=O)OC(C)C)[C@H]1c1ccccc1Cl [Example 99, (2S,3R,4S,5S)-3-tert-butyl-5-(2-chlorophenyl)-4-{[2-methoxy-5-(trifluoromethyl)pyridin-3-yl]methoxy}-1-{[(propan-2-yl)oxy]carbonyl}pyrrolidine-2-carboxylic acid] | 1000 to 10000 | 1000 to 10000 | +++ (≥350) | ++ (≥100 and <200)
COc1cnc(C2CCC2)cc1CO[C@H]1[C@H](C(C)(C)C)[C@@H](C(=O)O)N(C(=O)OC(C)C)[C@H]1c1ccccc1 [Example 100, (2S,3R,4S,5S)-3-tert-butyl-4-[(2-cyclobutyl-5-methoxypyridin-4-yl)methoxy]-5-phenyl-1-{[(propan-2-yl)oxy]carbonyl}pyrrolidine-2-carboxylic acid] | 1000 to 10000 | 1000 to 10000 | ++ (≥150 and <350) | + (<100)
COc1ncc(C(F)(F)F)cc1CO[C@H]1[C@H](C(C)(C)C)[C@@H](C(=O)O)N(C(=O)OC(C)C)[C@H]1c1ccccc1C1CCC1 [Example 101, (2S,3R,4S,5S)-3-tert-butyl-5-(2-cyclobutylphenyl)-4-{[2-methoxy-5-(trifluoromethyl)pyridin-3-yl]methoxy}-1-{[(propan-2-yl)oxy]carbonyl}pyrrolidine-2-carboxylic acid] | 1000 to 10000 | 1000 to 10000 | +++ (≥350) | ++ (≥100 and <200)
COc1ncc(C(F)(F)F)cc1CO[C@H]1[C@H](C(C)(C)C)[C@@H](C(=O)O)N(C(=O)[C@H]2CCCO2)[C@H]1c1ccccc1C(C)C [Example 102, (2S,3R,4S,5S)-3-tert-butyl-4-{[2-methoxy-5-(trifluoromethyl)pyridin-3-yl]methoxy}-1-[(2R)-oxolane-2-carbonyl]-5-[2-(propan-2-yl)phenyl]pyrrolidine-2-carboxylic acid] | 1000 to 10000 | 1000 to 10000 | ++ (≥150 and <350) | + (<100)
COc1ncc(C(F)(F)F)cc1CO[C@H]1[C@H](C(C)(C)C)[C@@H](C(=O)O)N(C(=O)[C@@H]2CCCCO2)[C@H]1c1ccccc1Cl [Example 103, (2S,3R,4S,5S)-3-tert-butyl-5-(2-chlorophenyl)-4-{[2-methoxy-5-(trifluoromethyl)pyridin-3-yl]methoxy}-1-[(2S)-oxane-2-carbonyl]pyrrolidine-2-carboxylic acid] | 1000 to 10000 | < 1000 | +++ (≥350) | ++ (≥100 and <200)
COc1ncc(C(F)(F)F)cc1CO[C@H]1[C@H](C(C)(C)C)[C@@H](C(=O)O)N(C(=O)[C@H]2CCCCO2)[C@H]1c1ccccc1Cl [Example 104, (2S,3R,4S,5S)-3-tert-butyl-5-(2-chlorophenyl)-4-{[2-methoxy-5-(trifluoromethyl)pyridin-3-yl]methoxy}-1-[(2R)-oxane-2-carbonyl]pyrrolidine-2-carboxylic acid] | 1000 to 10000 | 1000 to 10000 | +++ (≥350) | ++ (≥100 and <200)
COc1ncc(C(F)(F)F)cc1CO[C@H]1[C@H](C(C)(C)C)[C@@H](C(=O)O)N(C(=O)OC(C)C)[C@H]1c1ccccc1OC(C)C [Example 105, (2S,3R,4S,5S)-3-tert-butyl-4-{[2-methoxy-5-(trifluoromethyl)pyridin-3-yl]methoxy}-1-{[(propan-2-yl)oxy]carbonyl}-5-{2-[(propan-2-yl)oxy]phenyl}pyrrolidine-2-carboxylic acid] | < 1000 | < 1000 | +++ (≥350) | ++ (≥100 and <200)
COc1nc2ccccc2cc1CO[C@H]1[C@H](C(C)(C)C)[C@@H](C(=O)O)N(C(=O)OC(C)C)[C@H]1c1ccccc1 [Example 106, (2S,3R,4S,5S)-3-tert-butyl-4-[(2-methoxyquinolin-3-yl)methoxy]-5-phenyl-1-{[(propan-2-yl)oxy]carbonyl}pyrrolidine-2-carboxylic acid] | 1000 to 10000 | 1000 to 10000 | ++ (≥150 and <350) | + (<100)
CC(C)OC(=O)N1[C@H](C(=O)O)[C@@H](C(C)(C)C)[C@H](OCc2cc(C(F)(F)F)cnc2O)[C@@H]1c1ccccc1 [Example 107, (2S,3R,4S,5S)-3-tert-butyl-4-{[2-hydroxy-5-(trifluoromethyl)pyridin-3-yl]methoxy}-5-phenyl-1-{[(propan-2-yl)oxy]carbonyl}pyrrolidine-2-carboxylic acid] | 1000 to 10000 | 1000 to 10000 | ++ (≥150 and <350) | + (<100)
COc1ncc(C(F)(F)F)cc1CO[C@H]1[C@H](C(C)(C)C)[C@@H](C(=O)O)N(C(=O)OC(C)C)[C@H]1c1ccccc1C1=CCOCC1 [Example 108, (2S,3R,4S,5S)-3-tert-butyl-5-[2-(3,6-dihydro-2H-pyran-4-yl)phenyl]-4-{[2-methoxy-5-(trifluoromethyl)pyridin-3-yl]methoxy}-1-{[(propan-2-yl)oxy]carbonyl}pyrrolidine-2-carboxylic acid] | 1000 to 10000 | 1000 to 10000 | +++ (≥350) | ++ (≥100 and <200)
COc1ncc(C(F)(F)F)cc1CO[C@H]1[C@H](C(C)(C)C)[C@@H](C(=O)O)N(C(=O)[C@H]2CCOC2)[C@H]1c1ccccc1C(C)C [Example 109, (2S,3R,4S,5S)-3-tert-butyl-4-{[2-methoxy-5-(trifluoromethyl)pyridin-3-yl]methoxy}-1-[(3S)-oxolane-3-carbonyl]-5-[2-(propan-2-yl)phenyl]pyrrolidine-2-carboxylic acid] | 1000 to 10000 | 1000 to 10000 | ++ (≥150 and <350) | + (<100)
COc1ncc(C(F)(F)F)cc1CO[C@H]1[C@H](C(C)(C)C)[C@@H](C(=O)O)N(C(=O)C2CCOCC2)[C@H]1c1ccccc1C(C)C [Example 110, (2S,3R,4S,5S)-3-tert-butyl-4-{[2-methoxy-5-(trifluoromethyl)pyridin-3-yl]methoxy}-1-(oxane-4-carbonyl)-5-[2-(propan-2-yl)phenyl]pyrrolidine-2-carboxylic acid] | 1000 to 10000 | 1000 to 10000 | +++ (≥350) | ++ (≥100 and <200)
COc1ncc(C(F)(F)F)cc1CO[C@H]1[C@H](C(C)(C)C)[C@@H](C(=O)O)N(C(=O)[C@@H]2CCOC2)[C@H]1c1ccccc1C(C)C [Example 111, (2S,3R,4S,5S)-3-tert-butyl-4-{[2-methoxy-5-(trifluoromethyl)pyridin-3-yl]methoxy}-1-[(3R)-oxolane-3-carbonyl]-5-[2-(propan-2-yl)phenyl]pyrrolidine-2-carboxylic acid] | 1000 to 10000 | 1000 to 10000 | +++ (≥350) | ++ (≥100 and <200)
COc1ncc(C(F)(F)F)cc1CO[C@H]1[C@H](C(C)(C)C)[C@@H](C(=O)O)N(C(=O)[C@@H]2CCCO2)[C@H]1c1ccccc1C1CC1 [Example 112, (2S,3R,4S,5S)-3-tert-butyl-5-(2-cyclopropylphenyl)-4-{[2-methoxy-5-(trifluoromethyl)pyridin-3-yl]methoxy}-1-[(2S)-oxolane-2-carbonyl]pyrrolidine-2-carboxylic acid] | 1000 to 10000 | < 1000 | +++ (≥350) | ++ (≥100 and <200)
COc1ccc(C(F)(F)F)cc1CO[C@H]1[C@H](C(C)(C)C)[C@@H](C(=O)O)N(C(=O)[C@@H]2CCCO2)[C@H]1c1cccnc1C(F)(F)F [Example 113, (2S,3R,4S,5S)-3-tert-butyl-4-{[2-methoxy-5-(trifluoromethyl)phenyl]methoxy}-1-[(2S)-oxolane-2-carbonyl]-5-[2-(trifluoromethyl)pyridin-3-yl]pyrrolidine-2-carboxylic acid] | 1000 to 10000 | 1000 to 10000 | ++ (≥150 and <350) | + (<100)

Source: US10399940B2, “Substituted pyrrolidines and methods of use” (AbbVie S.à.r.l., priority 2016, dated 2019)
